Legend:
Assay type in all cases: in vivo
[1] = test system: Matricaria inodora (MATIN); experiment: A. Herbicidal pre-emergence efficacy, MATIN
Procedure, shortened: (§1)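 Applied before emergence onto covering soil at rates of 1280 g/ha or less, using 600 L/ha spray water with 0.5% additive. Scoring: visual % efficacy after ~3 weeks, greenhouse.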

Poa annua (POAAN) = experiment: A. Herbicidal pre-emergence efficacy, POAAN
Procedure, shortened: as §1

[2] = test system: Abutilon theophrasti (ABUTH); experiment: B. Herbicidal post-emergence efficacy, ABUTH; settings: rated visually after about 3 weeks
Procedure, shortened: (§2)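 Readout: visual % kill vs untreated, ~3 wk post-spray. Plants in sandy loam pots, treated at one-leaf stage; spray = WP/EC in water + 0.5% additive, 600 L/ha, dose ≤1280 g/ha.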

Stellaria media (STEME) = experiment: B. Herbicidal post-emergence efficacy, STEME
Procedure, shortened: as §2

[3] = test system: Amaranthus retroflexus (AMARE); experiment: C. Herbicidal pre-emergence efficacy, AMARE; settings: scored after about 3 weeks
Procedure, shortened: (§3)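 Pre-emergence test: formulated compounds sprayed as aqueous suspension or emulsion with 0.5% additive at 600 l/ha onto soil covering sown seeds, at rates corresponding to 320 g/ha or less. After about 3 weeks in greenhouse, efficacy scored visually as percent versus untreated controls (100% = plants dead).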

Lolium rigidum (LOLRI) = experiment: C. Herbicidal pre-emergence efficacy, LOLRI; settings: scored after about 3 weeks
Procedure, shortened: as §3

[4] = test system: Polygonum convolvulus (POLCO); experiment: E. Herbicidal post-emergence efficacy, POLCO
Procedure, shortened: (§4)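 Compounds applied at 320 g/ha or less as a foliar spray (600 l/ha, 0.5% additive) to one-leaf-stage greenhouse plants grown in sandy loam. Damage is visually scored in percent relative to untreated plants after about 3 weeks.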

Veronica persica (VERPE) = experiment: E. Herbicidal post-emergence efficacy, VERPE
Procedure, shortened: as §4

[5] = 320 g/ha, scored visually after about 3 weeks vs untreated controls
[6] = pre-emergence, dosage 1280 g/ha

SMILES	Pre-emergence efficacy against MATIN [1, 5]	Pre-emergence efficacy against MATIN [1, 6]	Pre-emergence efficacy against POAAN (Poa annua (POAAN); dosage 80 g/ha)	Pre-emergence efficacy against POAAN (Poa annua (POAAN); dosage 320 g/ha)	Pre-emergence efficacy against POAAN (Poa annua (POAAN); dosage 1280 g/ha)	Post-emergence efficacy against ABUTH in % ([2]; 80 g/ha)	Post-emergence efficacy against ABUTH in % ([2]; 320 g/ha)	Post-emergence efficacy against ABUTH in % ([2]; 1280 g/ha)	Post-emergence efficacy against STEME (Stellaria media (STEME); 80 g/ha)	Post-emergence efficacy against STEME (Stellaria media (STEME); 320 g/ha)	Post-emergence efficacy against STEME (Stellaria media (STEME); 1280 g/ha)	Pre-emergence efficacy against AMARE ([3]; 80 g/ha)	Pre-emergence efficacy against AMARE ([3]; 320 g/ha)	Pre-emergence efficacy against LOLRI (Lolium rigidum (LOLRI); 80 g/ha)	Pre-emergence efficacy against LOLRI (Lolium rigidum (LOLRI); 320 g/ha)	Post-emergence efficacy against POLCO in % ([4]; application rate 80 g/ha)	Post-emergence efficacy against POLCO in % ([4]; application rate 320 g/ha)	Post-emergence efficacy against VERPE in % (Veronica persica (VERPE); application rate 80 g/ha)	Post-emergence efficacy against VERPE in % (Veronica persica (VERPE); application rate 320 g/ha)
O=S(=O)(CCCC(F)(F)F)Oc1c(F)cccc1Oc1ncc(F)cn1 [Example I-42]	90%	100%	100%	100%	100%	100%	100%	100%	100%	100%	100%	100%	100%	100%	100%	100%	100%	100%	100%
O=S(=O)(CC1CC(F)(F)C1)Oc1c(F)cccc1Oc1ncc(Cl)cn1 [Example I-53]	–	100%	100%	100%	100%	90%	90%	90%	90%	90%	90%	100%	100%	–	100%	100%	100%	100%	100%
CC(C)CS(=O)(=O)Oc1ccccc1Oc1ncc(Cl)cn1 [Example I-7, [2-(5-Chloropyrimidin-2-yl)oxyphenyl] 2-methylpropane-1-sulfonate]	100%	100%	100%	100%	100%	–	90%	90%	–	90%	90%	100%	100%	–	90%	–	100%	90%	100%
CCCCS(=O)(=O)Oc1ccccc1Oc1ncc(Cl)cn1 [Example I-6]	–	100%	–	90%	90%	–	90%	90%	–	90%	90%	100%	100%	80%	100%	90%	100%	90%	90%
CCCS(=O)(=O)Oc1ccccc1Oc1ncc(Cl)cn1 [Example I-3]	100%	100%	90%	100%	100%	–	90%	100%	–	90%	100%	100%	100%	–	90%	–	90%	80%	90%
COCCS(=O)(=O)Oc1c(F)cccc1Oc1ncc(Cl)cn1 [Example I-52]	–	90%	–	90%	100%	–	–	90%	–	–	90%	100%	100%	–	90%	–	80%	100%	100%
O=S(=O)(CCC(F)(F)F)Oc1c(F)cccc1Oc1ncc(F)cn1 [Example I-47]	100%	100%	100%	100%	100%	90%	100%	100%	100%	100%	100%	100%	100%	90%	100%	100%	100%	100%	100%
O=S(=O)(CCCC(F)(F)F)Oc1c(Cl)cccc1Oc1ncc(Cl)cn1 [Example I-39]	100%	100%	–	100%	100%	–	–	90%	90%	90%	90%	100%	100%	–	100%	–	100%	100%	100%
O=S(=O)(CCC(F)(F)F)Oc1c(F)cccc1Oc1ncc(Cl)cn1 [Example I-48]	100%	100%	90%	100%	100%	90%	90%	90%	90%	90%	90%	100%	100%	90%	100%	100%	100%	100%	100%
O=S(=O)(CC1CC1)Oc1ccccc1Oc1ncc(Cl)cn1 [Example I-23]	90%	100%	90%	90%	90%	–	90%	100%	90%	100%	100%	100%	100%	–	100%	100%	100%	90%	100%
O=S(=O)(CCCC(F)(F)F)Oc1c(F)cccc1Oc1ncc(Cl)cn1 [Example I-49]	100%	100%	90%	100%	100%	90%	90%	90%	90%	90%	90%	100%	100%	80%	90%	100%	100%	100%	100%
O=S(=O)(CCCCl)Oc1ccccc1Oc1ncc(Cl)cn1 [Example I-2]	–	100%	100%	100%	100%	100%	100%	100%	90%	100%	100%	100%	100%	–	100%	100%	100%	100%	100%
Cc1cccc(Oc2ncc(F)cn2)c1OS(=O)(=O)CCCC(F)(F)F [Example I-46]	–	90%	90%	100%	100%	–	100%	100%	90%	100%	100%	80%	100%	–	100%	–	100%	100%	100%

From patent publication US20240174618A1, “SUBSTITUTED (2-HETEROARYLOXYPHENYL)SULFONATES, SALTS THEREOF AND THEIR USE AS HERBICIDAL AGENTS” (Bayer Aktiengesellschaft, priority 2021, published 2024)
